{"source": "patent US20050197286A1", "about": "“Method for control of depression using c terminal growth hormone (gh) fragment” (priority 2002, published 2005)", "key": {"[1]": {"system": "patients suffering from growth hormone deficiency", "conditions": "several studies, references 1-24; cited from earlier work"}, "[2]": {"system": "obese adult male subjects", "experiment": "Double-blind, placebo-controlled single intravenous dose study of AOD9604 (Example 1)", "assay_type": "in vivo, human", "protocol": "The objective of this study was to characterise the safety, tolerability and pharmacodynamic effects of AOD9604 following single intravenous administration to obese adult male subjects. The study was performed by CMAX Pty Ltd under contract to Metabolic Pharmaceuticals Ltd.\nThe study was designed as a double-blind, placebo-controlled, 4×4 Williams Latin Square design, intravenous dose study included twenty four (obese Body mass index (BMI) of ≧35 kg/m^2 and a waist circumference of ≧110 cm) adult subjects with each subject receiving active study drug on each of three occasions and placebo on one occasion. Treatment allocation was randomised according to a Master Randomisation Schedule.\nSubjects who provided written informed consent and who met all inclusion/exclusion criteria were randomised to receive each of the four treatments according to the study Master Randomisation Schedule. The subjects were randomised to receive a single dose of 25, 50 and 100 μg/kg AOD9604 and a single dose of placebo (5% mannitol solution) over the four periods of the study. Dose administration was by intravenous infusion, and was conducted over a period of 10 minutes.\nDuring each in-clinic stay, blood samples were collected at specified times both prior to and following dose administration for the determination of pharmacodynamic parameters of non-esterified fatty acids (NEFA), glycerol, glucose and IGF-1. For the purposes of safety monitoring, the physical condition (physical examination, blood pressure, pulse, temperature and general well being) of the subjects was monitored both prior to and at specified intervals during each study period. ECG monitoring was performed prior to the infusion, at the end of the infusion and at specified times following the end of the infusion. Blood samples were also collected for assessment of haematological and biochemical parameters. Subjects were released from the clinic following the 24 hour post-dose blood sample and physical examination. Subjects returned to the clinic for the following period after a 7-day washout period. Within 14 days of the final period (Period 4), an Exit Evaluation was performed, involving the following assessments: physical examination (including ECG monitoring), body height and weight determination, vital sign measurements, questions regarding adverse events, collection of blood samples for the assessment of haematological and biochemical parameters, and collection of a urine sample for urinalysis and microscopy. A further 5 mL blood sample was collected and the serum stored for possible antibody analysis to be done at a later date.\nTreatment A: A single dose of 25 μg/kg AOD9604 administered intravenously via an infusion pump over a 10 minute period.\nTreatment B: A single dose of 50 μg/kg AOD9604 administered intravenously via an infusion pump over a 10 minute period.\nTreatment C: A single dose of 100 μg/kg AOD9604 administered intravenously via an infusion pump over a 10 minute period.\nEach subject received one of each of three doses of the active study drug, AOD9604 (25, 50, and 100 μg/kg) on three occasions and a placebo on one occasion. The doses were administered as intravenous infusions of 10 minute duration with a wash-out period of 7 days between each consecutive treatment. Subjects were not permitted to eat or drink anything, except for water, for at least 10 hours prior to and 2 hours following administration of the dose. Meals were timed in relation to the end of dosing, as follows: Snack (2 hours and 5 minutes), Lunch (4 hours and 5 minutes), Dinner (10 hours and 5 minutes) and Snack (13 hours and 5 minutes)."}, "[3]": {"system": "obese adult male subjects", "experiment": "Double-blind single oral dose study of AOD9604 (Example 2, Phase 2A)", "assay_type": "in vivo, human", "excerpt": "The objective of this study was to characterise the safety, tolerability, pharmacodynamic and pharmacokinetic effects of AOD9604 following single oral administration to obese adult male subjects.\nThe study was a double-blind, placebo controlled, 4×4 Williams Latin Square design, single oral dose study, planned to include 16 subjects. Each subject received active study drug on each of three occasions and placebo on one occasion. There was a washout period of 14 days between the doses administered in each study period.\nEligibility criteria were the same as for Example 1, except that the age range of the subjects was 35 to 60 years of age inclusive.\nThere were four study treatments, and each subject received each of the four treatments on four separate occasions, separated by a fourteen day wash out period. The dose strengths were as follows: • 10 mg (76.9 μg/kg for 130 kg subject); • 30 mg (230.8 μg/kg for 130 kg subject); • 60 mg (461.5 μg/kg for 130 kg subject); and • placebo.\nThe active pharmaceutical formulation was Size-0 capsules (Shionogi Qualicaps Co. Ltd.) of 10 mg AOD9604 containing 3.9% AOD9604, 84.1% Mannitol (USP) and 12% PEG3350, USP. Placebo capsules contained excipients only.\nFor each treatment, capsules were administered orally with 240 mL of room temperature water following at least a 12 hour overnight fast. Study personnel inspected the oral cavity to confirm that the subject has ingested the study treatment following each dose.\nIn the Phase 2A single dose intravenous trial, reported in Example 1, mild euphoria was reported by several patients who received drug and none who received placebo. The patients taking part in this single dose oral treatment were therefore asked to complete the Nottingham Health Profile questionnaire (see Wiklund I. (1990) The Nottingham Health Profile—a measure of health-related quality of life. Scand. J. Prim. Health Care Suppl. 1:15-8) before dose and 7 days after dose."}, "healthy lean males": {"system": "healthy lean males", "assay_type": "in vivo, human", "protocol": "The selection of 25, 50 and 100 μg/kg doses of AOD9604 used in this study was based on the results from a previous Phase I study, conducted from February-June 2001, in healthy lean males using a dose range of 25-400 μg/kg AOD9604."}, "[4]": {"system": "obese adult male subjects", "experiment": "Double-blind multiple oral dose escalation study of AOD9604 (Example 3, Phase 2A)", "assay_type": "in vivo, human", "excerpt": "The objective of this study was to characterise the safety and tolerability and the pharmacodynamic profile of AOD9604 following multiple oral administration to obese adult male subjects.\nThis was a double-blind, placebo-controlled, 3 period, oral dose, dose escalation study with randomization directed such that each subject received 7 doses of active study drug or placebo over one 7-day period, i.e. one dose per day for 7 days. There were up to three dose levels of AOD9604 and placebo studied in 3 cohorts of 12 subjects each. In each study period, 12 subjects were randomised so that 9 received active study drug and 3 received placebo. There was a period of 7 days between study periods to allow for appropriate safety review and permission to progress to the next dose level.\nThe eligibility criteria of subjects were as for Example 2, except that the age range was 18 to 60 years of age, and the BMI threshold was ≧30 kg/m^2, since the primary aim of the study was safety assessment. The restrictions on the subjects and the conduct of the study again were generally as in Example 2.\nThere were three study periods, and the dose strengths used were 10 mg, 30 mg, 60 mg and placebo, with seven doses per study period. The formulation of AOD9604 and placebo were as for Example 2.\nFor each treatment, capsules were administered orally every day for 7 days with 240 mL of room temperature water following at least a 12 hour overnight fast.\nThe patients were asked to complete the SF-36 Quality of Life Questionnaire (Ware J. J. and Sherbourne C. D. (1992) The MOS 36-item short-form health survey (SF-36). I. Conceptual framework and item selection. Medical Care; 30:473-83) at days 0, 8 and 14. The results are illustrated in FIG. 2, A and B and FIG. 3, A and B. The SF-36 questionnaire is different to the questionnaire used in the Phase 2A […] single dose trial of Example 2. SF-36 provides only positive numerical values for mood assessment, with higher values indicating greater happiness, and lower values indicating lower happiness. (The graphs in FIGS. 2 and 3 however do have some negative values because they are representing the change in mood from pre-treatment.) FIGS. 2 and 3 show a similar bell-shaped dose response on mood as that observed in Example 1 (only it is a reversed bell-shape in comparison to Example 1). […] There was an improvement in the mental aggregate scores, relative to placebo, at the 10 mg dose on day 8, and a worsening at the 30 mg and 60 mg doses relative to placebo."}, "C57Bl/6J (Ob/Ob) mouse": {"system": "C57Bl/6J (Ob/Ob) mouse", "conditions": "Australian patent No. 693478; cited from earlier work"}, "[5]": {"conditions": "single iv infusion 25, 50 or 100 μg/kg, only in periods with active drug, none with placebo"}}, "note": "“Also recorded” adds a separate entry of the source.", "data": [{"substance": "Intact growth hormone: intact growth hormone, the full hormone from which the C-terminal fragments derive", "values": [{"measurement": "effect on mood", "setting": "[1]", "value": "positive effects on mood"}]}, {"substance": "Tyr-hGH 177-191 [AOD9604]", "values": [{"measurement": "mean serum NEFA compared to placebo", "setting": "[2]; 2 hours post dose, all AOD9604 doses (25, 50, 100 μg/kg iv)", "value": "rose more"}, {"measurement": "severity of euphoria", "setting": "[2]; after a single iv dose of active drug", "value": "mild to moderate euphoria; also recorded: mild or moderate euphoria"}, {"measurement": "weight loss in older patients compared to placebo", "setting": "[2]; aged 35+ (N=13), highest dose 100 μg/kg iv", "value": "highly significant weight loss"}, {"measurement": "body weight change compared to placebo", "setting": "[2]; measured 1 week after each iv dose", "value": "lower in the treated groups than in those receiving placebo"}, {"measurement": "significance of NEFA effect in older patients", "setting": "[2]; patients aged 35+, 2 hours post dose", "value": "highly significant"}, {"measurement": "subjects experiencing euphoria (number of subjects)", "setting": "[2]; [5]", "value": "5/23"}, {"measurement": "subjects experiencing euphoria (percentage)", "setting": "[2]; [5]", "value": 21.7, "unit": "%"}, {"measurement": "mood, Nottingham Health Profile questionnaire, response by dose", "setting": "[3]; 30 mg single oral dose, lower is happier", "value": "greatest response"}, {"measurement": "non-esterified fatty acid (NEFA) levels compared to placebo", "setting": "[3]; 1, 2 and 4 hours after AOD9604 27.6 mg oral, p<0.05", "value": "statistically significantly increased"}, {"measurement": "NEFA response", "setting": "[3]; AOD9604 55.2 mg oral, compared with 27.6 mg", "value": "lower response"}, {"measurement": "mood, Nottingham Health Profile questionnaire", "setting": "[3]; before dose vs 7 days after dose, all single oral doses (10, 30, 60 mg), placebo worsened", "value": "improvement of mood"}, {"measurement": "tolerability", "setting": "[3]; over the oral dose range 10-60 mg single dose", "value": "well tolerated"}, {"measurement": "incidence of adverse events, active vs placebo", "setting": "[3]; single oral doses", "value": "no observable trends"}, {"measurement": "vital signs, ECG, physical examination and clinical laboratory assessments", "setting": "[3]; single oral doses", "value": "no clinically significant changes"}, {"measurement": "pharmacodynamic response at 50 μg/kg", "setting": "healthy lean males; 50 μg/kg", "value": "a response had been shown"}, {"measurement": "pharmacodynamic response at high dose", "setting": "healthy lean males; dose increased to 200 μg/kg and higher", "value": "response diminished"}, {"measurement": "pharmacodynamic response", "setting": "healthy lean males; iv dose range 25-400 μg/kg", "value": "A pharmacodynamic response was seen"}, {"measurement": "gastrointestinal adverse effects", "setting": "[4]; 60 mg dose group, particularly in the hour after dose", "value": "increase in mild gastrointestinal effects"}, {"measurement": "significance of body weight effect in subgroup", "setting": "[4]; age 35+ and BMI 35+ group, p<0.05", "value": "statistically significant"}, {"measurement": "SF-36 mental aggregate relative to placebo, all doses", "setting": "[4]; at 8 days vs day 0, 10, 30, 60 mg/day oral for 7 days", "value": "improvement in the mental aggregate for all doses relative to placebo"}, {"measurement": "significance of SF-36 improvement at 10 mg", "setting": "[4]; at 8 days, 10 mg/day oral, p<0.05", "value": "statistically significant"}, {"measurement": "SF-36 physical aggregate relative to placebo", "setting": "[4]; at 14 days, dose 60 mg/day, only aggregate/dose worse than placebo", "value": "worse result that the placebo"}, {"measurement": "SF-36 mental aggregate scores relative to placebo, 10 mg", "setting": "[4]; day 8, 10 mg/day oral", "value": "improvement"}, {"measurement": "SF-36 mental aggregate scores relative to placebo, 30 mg and 60 mg", "setting": "[4]; day 8, 30 mg and 60 mg/day oral", "value": "worsening"}, {"measurement": "body weight difference (anti-obesity effect)", "setting": "[4]; morning of day 1 vs day 8, bell-shaped dose response", "value": "clear activity"}, {"measurement": "incidence of adverse events, active vs placebo", "setting": "[4]; multiple oral doses, 7 days", "value": "no observable trends"}, {"measurement": "vital signs, ECG, physical examination and clinical laboratory assessments", "setting": "[4]; multiple oral doses, 7 days", "value": "no clinically significant changes"}]}, {"substance": "hGH 177-191: synthetic peptide corresponding to amino acid residues 177-191 of the human growth hormone sequence (LRIVQCRSVEGSCGF; UniProt P01241 203-217, looked up, fragment)", "values": [{"measurement": "body weight gain and adipose tissue mass", "setting": "C57Bl/6J (Ob/Ob) mouse", "value": "reduce body weight gain and adipose tissue mass"}]}]}
